# Test system: NCI-H510 multicellular tumor spheroid growth, % test/control
# Experiment: Anticancer human tumor NCI-H510 cell line growth inhibition [Asc];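 note: spheroids exposed to agents for 7 days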;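 for viability, T/C: 100% = DMSO vehicle control wells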
# Details: for IC50: curve of first compound; for viability, T/C: stronger effect = lower value
# Method: Multicellular complex tumor spheroid response to apoptosis pathway targeting inhibitors Alrizomadlin, Pelcitoclax, and Dasminapant in combination with a variety of drugs and investigational agents in selected tumor cell lines
# The MDM2 inhibitor alrizomadlin, the Bcl-2/Bcl-xL inhibitor pelcitoclax, and the IAPs inhibitor dasminapant were evaluated both individually and in combination with standard of care and investigational anticancer small molecules within a complex spheroid model of solid tumors. . Complex spheroids include a stromal component modeled by human endothelial cells (HUVEC) and fibroblasts modeled by human mesenchymal stem cells (MSCs). The concentration ranges selected for each drug and investigational agent were based upon clinically achievable concentrations if the clinical Cmax of the agent was known.
# Compounds. The drugs and investigational agents: alrizomadlin (APG-115; NSC831270), pelcitoclax (APG-1252; NSC835773), dasminapant (APG-1387;NSC834197), TAK-243 (NSC785004), copanlisib (NSC809693), olaparib (NSC753686), talazoparib (NSC767125), cobimetinib (NSC 768068), eltanexor (KPT-8602, NSC 794443), abemaciclib (NSC 768073), sotorasib (NSC818433), adagrasib (NSC 831453), MRTX-1133 (NSC 836407), Iadademestat (ORY1001, NSC 806812), and RMC-4630 (NSC839698), were obtained from the NCI Developmental Therapeutics Program Chemical Repository. The FDA-approved anticancer drug set is available from the Developmental Therapeutics Program at https://dtp.cancer.gov/organization/dscb/obtaining/available plates.htm. […] The stock solutions were prepared in dimethyl sulfoxide (DMSO, Sigma-Aldrich, St. Louis, MO, cat. D2650) at 800-fold the tested concentration and stored at -70 degrees C prior to their use. All drugs and investigational agents were tested over a range starting from a high concentration at or near the clinical Cmax and decreasing in half-log increments. If the clinical Cmax for an agent had not been determined, the highest concentration tested was 10 microM.
# The patient-derived cancer (PDC) cell lines include five colon adenocarcinomas: 186277-243-T-J2-PDC, 616215-338-R-J1-PDC, 439559-082-T-J2-PDC, 463943-066-T-J2-PDC, and 519858-162-T-J1-PDC; three pancreatic carcinomas: 323965-272-R-J2-PDC, 521955-158-R6-J3-PDC, and 521955-158-R2-J5-PDC; two uterine sarcomas: 327498-152-R-J2-PDC and 993429-296-R-J1-PDC; two rhabdomyosarcomas: 755483-174-R-J1-PDC and 772245-204-R-J1-PDC; two soft tissue sarcomas: 126254-015-R-J1-PDC and 494315-158-R-J1-PDC; two malignant fibrous histiocytomas: 317291-083-R-J1-PDC and 596521-263-R-J1-PDC; two breast carcinomas: 171881-019-R-J1-PDC and 885512-296-R-J2-PDC; and one ovarian carcinoma: 6556581-035-R-J-PDC were obtained from the NCI PDMR, (https://pdmr.cancer.gov). The established cell lines HSSY-2 synovial sarcoma (RRID:CVCL 8719), SYO-1 synovial sarcoma (RRID:CVCL_7146), MPNST malignant peripheral neural sheath tumor were obtained from the Sloan Kettering Institute. The following established cell lines were purchased from the American Type Culture Collection (ATCC, Manassas, VA), Sor the received from the NCI repository:, PANC-1 pancreatic carcinoma (CRL-1469, RRID:CVCL_0480), OVCAR-5 ovarian carcinoma (RRID:CVCL_1628), OVCAR-8 ovarian carcinoma (RRID:CVCL_1629), , MCF-7 breast carcinoma (CRL-12584, RRID:CVCL_0031), MDA-MB-231 breast carcinoma (CRL-12532, RRID:CVCL_0062), NCI-H1876 small cell lung carcinoma (CRL-5902, RRID:CVCL_1503), NCI-H510A small cell lung carcinoma (HTB-184, RRID:CVCL_1565), NCI-H1417 (CRL-5869, RRID:CVCL_1469), and NCI-H196 small cell lung carcinoma (CRL-5823, RRID:CVCL_1509). Dr. Peter Houghton (Greehey Children's Cancer Research Institute, University of Texas Health Science Center, San Antonio, TX) provided Rh-18 rhabdomyosarcoma (RRID:CVCL_1659). Pooled donor human umbilical vein endothelial cells (HUVEC, Lonza, cat. CC-2519) and human mesenchymal stem cells (hMSC, Lonza, cat. PT-2501) were purchased from Lonza (Walkersville, MD).
# Cell Culture. […]
# [1] = second compound 0.03 µM, first compound 0.00316 µM
# [2] = second compound 0.03 µM, first compound 0.01 µM
# [3] = second compound 0.03 µM, first compound 0.0316 µM
# [4] = second compound 0.03 µM, first compound 0.1 µM
# [5] = second compound 0.0949 µM, first compound 0.00316 µM
# [6] = second compound 0.0949 µM, first compound 0.01 µM
# [7] = second compound 0.0949 µM, first compound 0.0316 µM
# [8] = second compound 0.0949 µM, first compound 0.1 µM
# [9] = second compound 0.3 µM, first compound 0.00316 µM
# [10] = second compound 0.3 µM, first compound 0.01 µM
# [11] = second compound 0.3 µM, first compound 0.0316 µM
# [12] = second compound 0.3 µM, first compound 0.1 µM
# [13] = second compound 0.949 µM, first compound 0.00316 µM
# [14] = second compound 0.949 µM, first compound 0.01 µM
# [15] = second compound 0.949 µM, first compound 0.0316 µM
# [16] = second compound 0.949 µM, first compound 0.1 µM
# [17] = second compound 3 µM, first compound 0.00316 µM
# [18] = second compound 3 µM, first compound 0.01 µM
# [19] = second compound 3 µM, first compound 0.0316 µM
# [20] = second compound 3 µM, first compound 0.1 µM
Structure (SMILES),IC50 (second compound 0.03 µM) [µM],IC50 (second compound 0.0949 µM) [µM],IC50 (second compound 0.3 µM) [µM],IC50 (second compound 0.949 µM) [µM],IC50 (second compound 3 µM) [µM],"viability, T/C [1] [%]","viability, T/C [2] [%]","viability, T/C [3] [%]","viability, T/C [4] [%]","viability, T/C [5] [%]","viability, T/C [6] [%]","viability, T/C [7] [%]","viability, T/C [8] [%]","viability, T/C [9] [%]","viability, T/C [10] [%]","viability, T/C [11] [%]","viability, T/C [12] [%]","viability, T/C [13] [%]","viability, T/C [14] [%]","viability, T/C [15] [%]",further results
CCN1CCN(Cc2ccc(Nc3ncc(F)c(-c4cc(F)c5nc(C)n(C(C)C)c5c4)n3)nc2)CC1 + CCN1C(C(=O)NC23CCC(C(=O)O)(CC2)CC3)C(c2cccc(Cl)c2F)C2(C(=O)Nc3cc(Cl)ccc32)C12CCCCC2,> 1,> 1,> 1,> 1,> 1,100,88,99.1,129,97.4,116,121,110,119,114,74.9,86.1,105,107,123,"viability, T/C (second compound 0.03 µM, first compound 0.316 µM): 123%; viability, T/C (second compound 0.03 µM, first compound 1 µM): 75.7%; viability, T/C (second compound 0.0949 µM, first compound 0.316 µM): 105%; viability, T/C (second compound 0.0949 µM, first compound 1 µM): 87.5%; viability, T/C (second compound 0.3 µM, first compound 0.316 µM): 106%; viability, T/C (second compound 0.3 µM, first compound 1 µM): 88.7%; viability, T/C [16]: 74.5%; viability, T/C (second compound 0.949 µM, first compound 0.316 µM): 107%; viability, T/C (second compound 0.949 µM, first compound 1 µM): 106%; viability, T/C [17]: 98.2%; viability, T/C [18]: 127%; viability, T/C [19]: 128%; viability, T/C [20]: 76.1%; viability, T/C (second compound 3 µM, first compound 0.316 µM): 113%; viability, T/C (second compound 3 µM, first compound 1 µM): 83.1%"
NC1CCC(NC2CC2c2ccccc2)CC1 (stereo not given) + CCN1C(C(=O)NC23CCC(C(=O)O)(CC2)CC3)C(c2cccc(Cl)c2F)C2(C(=O)Nc3cc(Cl)ccc32)C12CCCCC2,> 0.1,> 0.1,> 0.1,> 0.1,0.0848,82.5,81.9,92.4,91.9,77.5,78.7,60.6,71.3,98.3,95.8,73.3,55.8,90.6,80.8,72.3,"viability, T/C (second compound 0.03 µM, first compound 0.000316 µM): 85.9%; viability, T/C (second compound 0.03 µM, first compound 0.001 µM): 84.4%; viability, T/C (second compound 0.0949 µM, first compound 0.000316 µM): 101%; viability, T/C (second compound 0.0949 µM, first compound 0.001 µM): 71.6%; viability, T/C (second compound 0.3 µM, first compound 0.000316 µM): 92.4%; viability, T/C (second compound 0.3 µM, first compound 0.001 µM): 85.8%; viability, T/C (second compound 0.949 µM, first compound 0.000316 µM): 83.8%; viability, T/C (second compound 0.949 µM, first compound 0.001 µM): 92.9%; viability, T/C [16]: 60.5%; viability, T/C (second compound 3 µM, first compound 0.000316 µM): 106%; viability, T/C (second compound 3 µM, first compound 0.001 µM): 82.3%; viability, T/C [17]: 79.8%; viability, T/C [18]: 75.2%; viability, T/C [19]: 60%; viability, T/C [20]: 46.6%"

# From PubChem BioAssay AID1963438 (Molecular Pharmacology Branch, DTP, NCI, 2024)
